Experimental data published in patent US8318973B2, “Functionalized sinapic acid and methyl sinapate” (Bezwada Biomedical, LLC, priority 2005, dated 2012).

Assay: In vitro hydrolysis of functionalized phenolics in pH 7.4 buffer at reflux
Type: physicochemical
Details: 500 mg compound in 50 mL pH 7.4 buffer, reflux temperature (100° C.), monitored by TLC
Procedure: In Vitro Hydrolysis of Functionalized Phenolics
A few selected compounds were examined for the rate of hydrolysis by conducting in vitro hydrolysis studies at reflux temperature (100° C.). For each experiment, 500 mg of a functionalized compound and 50 mL of pH 7.4 buffer solution (purchased from Aldrich chemical company) were charged into a 100 mL round bottom flask fitted with a condenser and the contents were refluxed. In vitro hydrolysis of the functionalized phenolic was monitored by thin layer chromatography (TLC) using corresponding starting material (original amino acid) as a control. In vitro hydrolysis was continued at reflux until the functionalized molecule hydrolyzed to the starting compound.

SMILES	time in which the functionalized compound was hydrolyzed to the starting compound
COC(=O)COC(=O)COc1ccc(C(=O)OCC(=O)OC)cc1 [Example 77, 4-Methoxycarbonylmethoxycarbonylmethoxy-benzoic acid methoxycarbonyl methyl ester]	26.5 h
COC(=O)COC(=O)c1ccc(OCC(=O)OC)cc1 [Example 78, 4-Methoxycarbonylmethoxy-benzoic acid methoxycarbonylmethyl ester]	33.0 h
COC(=O)COC(=O)c1ccccc1OCC(=O)OC [Example 79, 2-Methoxycarbonylmethoxy-benzoic acid methoxycarbonylmethyl ester]	eight
COC(=O)COC(=O)COc1ccccc1C(=O)OCC(=O)OC [Example 81, 2-Methoxycarbonylmethoxycarbonylmethoxy-benzoic acid methoxycarbonyl methyl ester]	two
COC(=O)COC(=O)COc1ccc(OCC(=O)OCC(=O)OC)cc1 [Example 84, (4-Methoxycarbonylmethoxycarbonylmethoxy-phenoxy)-acetic acid methoxycarbonyl methyl ester]	one
COC(=O)C(C)OC(=O)COc1ccc(OCC(=O)OC(C)C(=O)OC)cc1 (stereo not shown) [Example 85, 2-{2-[4-(1-Methoxycarbonyl-ethoxycarbonylmethoxy)-phenoxy]-acetoxy}-propionic acid methyl ester]	two
COC(=O)COC(=O)COc1ccc2cc(C(C)C(=O)OCC(=O)OC)ccc2c1 (stereo not shown) [Example 90, 2-(6-Methoxycarbonylmethoxycarbonylmethoxy-naphthalen-2-yl)-propionic acid Methoxy Carbonylmethyl ester]	four
COC(=O)COC(=O)C(C)c1ccc2cc(OCC(=O)OC)ccc2c1 (stereo not shown) [Example 92, 2-(6-Methoxycarbonylmethoxy-naphthalen-2-yl)-propionic acid Methoxy Carbonyl methyl ester]	four
COC(=O)COC(=O)COc1ccc(N)cc1 [Example 96, (4-Amino-phenoxy)-acetic acid methoxycarbonylmethyl ester]	three
COC(=O)COC(=O)COc1ccc(-c2coc3cc(OCC(=O)OCC(=O)OC)ccc3c2=O)cc1 [Example 98, [4-(7-Methoxycarbonylmethoxycarbonylmethoxy-4-oxo-4H-chromen-3-yl)-phenoxy]-acetic acid methoxycarbonylmethyl ester]	ten
